Measurements: US8362008B2 (The University Of Edinburgh, priority 2007, dated 2013)

Each molecule was assayed against T1, human 11β-HSD1 enzyme (Homo sapiens, UniProt P28845) (assay: Cellular in vitro 11β-HSD1 enzyme inhibition assay (SPA, HEK293/11β-HSD1 cells)). Conditions: HEK293, less than or equal to 1000 nM (1 μM).
T1 construct: stably transfected with a construct containing the full-length gene coding for the human 11β-HSD1 enzyme; expressed in transfected cells; host or cells: HEK293 (HEK293/11β-HSD1 cells)
T1 sequence (P28845 whole entry): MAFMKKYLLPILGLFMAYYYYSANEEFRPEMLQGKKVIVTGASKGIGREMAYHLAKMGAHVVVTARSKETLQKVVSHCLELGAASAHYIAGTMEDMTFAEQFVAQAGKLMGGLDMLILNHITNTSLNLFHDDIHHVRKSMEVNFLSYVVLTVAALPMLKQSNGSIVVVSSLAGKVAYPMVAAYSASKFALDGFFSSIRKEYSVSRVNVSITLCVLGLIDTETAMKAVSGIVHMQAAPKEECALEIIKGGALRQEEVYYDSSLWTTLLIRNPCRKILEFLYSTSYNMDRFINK
Assay type: cell-based
Procedure: Cellular In Vitro 11β-HSD1 Enzyme Inhibition Assay
Compounds were assessed by a Scintillation Proximity Assay (SPA) performed according to the following protocol:
HEK293 cells were stably transfected with a construct containing the full-length gene coding for the human 11β-HSD1 enzyme to create HEK293/11β-HSD1 cells. Cells were routinely cultured in DMEM containing 10% calf foetal serum, 1% glutamine, and 1% penicillin and streptomycin. Prior to assay, cells were plated at 2×10^4 cells/well in 96-well poly-D-Lys coated flat-bottomed microplates and incubated in 5% CO2, 95% O2 at 37° C. for 24 hours. The media in each well was removed immediately before assay.
Compounds to be tested were dissolved in DMSO at 10 mM and serially diluted into water containing 10% DMSO. Diluted compounds at a volume of 10 μL were added to wells of a 96-well V-bottomed microplate. […] This solution (100 μL/well) was transferred to the plate containing the cells. The plate was then incubated in 5% CO2, 95% O2 at 37° C. for 2 hours.
Following this incubation, 50 μL of the assay solution was transferred to each well of a 96-well scintillation microplate. A mixture consisting of anti-mouse YSi SPA beads, pre-mixed with anti-cortisol antibody in assay buffer (50 mM Tris.HCl, pH 7.0; 300 mM NaCl; 1 mM EDTA, 5% glycerol) was prepared and 50 μL added to each well of the scintillation microplate. An adhesive strip was applied to the microplate and the plate gently shaken for at least 2 hours at room temperature, and then spun briefly on a low speed centrifuge. The plate was read on a scintillation counter suitable for 96-well microplates. For the calculation of percentage inhibition, a series of wells were added to the plate that represented the assay maximum and the assay minimum: one set that contained substrate without cells (mimimum) and another set that contained substrate and cells without any compound (maximum).
The calculation of median inhibitory concentration (IC50) values for the compounds was performed using GraphPad Prism® software. Dose-response curves for each compound were plotted as fractional inhibition and data fitted to the four parameter logistic equation.
In the case of O=C(c1csc(C2CCOCC2)c1)N1CCCCCC1 [CC-004], the IC50 is reported as ≤ 1000 nM.
In the case of CC1(C)CCCN(C(=O)c2csc(C3CCN(C(=O)CO)CC3)c2)CC1 [CC-113], the IC50 is reported as ≤ 1000 nM.
For O=C(c1cc(C2CCOCC2)sc1Cl)N1CCC2CCCCC2C1 (stereo not drawn) [CC-031], the IC50 was ≤ 1000 nM.
O=C(c1csc(C2CCNCC2)c1)N1CCCCC1c1ccccc1 (single isomer, unassigned) [CC-130, cis-(2-Phenyl-piperidin-1-yl)-(5-piperidin-4-yl-thiophen-3-yl) methanone] was tested, and the IC50 was ≤ 1000 nM.
With COCC(=O)N1CCC(c2cc(C(=O)N3CCCC4CCCCC43)cs2)CC1 (stereo not drawn) [CC-083] the IC50 was ≤ 1000 nM.
In the case of N#CC1(c2cc(C(=O)N3CCC[C@@H]4CCCC[C@@H]43)cs2)CCOCC1 (relative stereo) [CC-127, cis-4-[4-(Octahydro-quinoline-1-carbonyl)-thiophen-2-yl]-tetrahydro-pyran-4-carbonitrile], the IC50 is reported as ≤ 1000 nM.
In the case of CC1(C)CC2CC(C)(CN2C(=O)c2cc(C3CCOCC3)sc2Cl)C1 (stereo not drawn) [CC-070], the IC50 is reported as ≤ 1000 nM.
For NC(=O)N1CCC(c2cc(C(=O)N3CCCC4CCCCC43)cs2)CC1 (stereo not drawn) [CC-144], the IC50 was ≤ 1000 nM.
O=C(NCCO)N1CCC(c2cc(C(=O)N3CCC[C@@H]4CCCC[C@@H]43)cs2)CC1 (racemic) [CC-157, cis-4-[4-(Octahydro-quinoline-1-carbonyl)-thiophen-2-yl]-piperidine-1-carboxylic acid(2-hydroxy-ethyl)-amide] was tested, and the IC50 was ≤ 1000 nM.
O=C(c1csc(C2CCNCC2)c1)N1CCC[C@@H]2CCCC[C@@H]21 (single isomer, unassigned) [CC-159, cis-(octahydro-quinolin-1-yl)-(5-piperidin-4-yl-thiophen-3-yl)-methanone] was tested, and the IC50 was ≤ 1000 nM.
For CC1(C)CCCN(C(=O)c2csc(C3CCCCC3)c2)C1 [DD-001], the IC50 was ≤ 1000 nM.
With O=C(c1csc(C2=CCNCC2)c1)N1CCCC(F)(F)CC1 [CC-126] the IC50 was ≤ 1000 nM.
With CS(=O)(=O)NCCC(=O)N1CC=C(c2cc(C(=O)N3CCCC4CCCCC43)cs2)CC1 (stereo not drawn) [CC-091] the IC50 was ≤ 1000 nM.
For O=C(CN1CCOCC1)N1CCC(c2cc(C(=O)N3CCCC4CCCCC43)cs2)CC1 (stereo not drawn) [CC-059], the IC50 was ≤ 1000 nM.
CCCCCc1cc(C(=O)N2CCCC3CCCCC32)cs1 (stereo not drawn) [AA-011] was tested, and the IC50 was ≤ 1000 nM.
With CCc1cc(C(=O)N2CCCC(C)(C)CC2)cs1 [AA-019] the IC50 was ≤ 1000 nM.
For CCCCCc1cc(C(=O)N2CC3(C)CC2CC(C)(C)C3)cs1 (stereo not drawn) [AA-017], the IC50 was ≤ 1000 nM.
CC1(C)CC2CC(C)(CN2C(=O)c2csc(C3CCOCC3)c2)C1 (stereo not drawn) [CC-069] was tested, and the IC50 was ≤ 1000 nM.
O=C(c1csc(C2CCOCC2)c1)N1CCCC2CCCCC21 (stereo not drawn) [CC-028] was tested, and the IC50 was ≤ 1000 nM.
CNC(=O)C(C)(C)N1CCC(c2cc(C(=O)N3CCCC4CCCCC43)cs2)CC1 (stereo not drawn) [CC-171] was tested, and the IC50 was ≤ 1000 nM.
For NC(=O)N1CCC(c2cc(C(=O)N3CCC[C@@H]4CCCC[C@@H]43)cs2)CC1 (relative stereo) [CC-068, cis-4-[4-(Octahydro-quinoline-1-carbonyl)-thiophen-2-yl]-piperidine-1-carboxylic acid amide], the IC50 was ≤ 1000 nM.
For CC1(C)CCCN(C(=O)c2csc(C3CCOCC3)c2)CC1 [CC-021], the IC50 was ≤ 1000 nM.
With CC1(C)CCCN(C(=O)c2cc(C3CCOCC3)sc2Cl)C1 [CC-005] the IC50 was ≤ 1000 nM.
O=C(c1cc(C2CCOCC2)sc1Cl)N1CCCCCC1 [CC-006, Azepan-1-yl-[2-chloro-5-(tetrahydro-pyran-4-yl)-thiophen-3-yl]methanone] was tested, and the IC50 was ≤ 1000 nM.
In the case of CCc1cc(C(=O)N2CCCCC2)c(Br)s1 [AA-002, (2-Bromo-5-ethyl-thiophen-3-yl)-piperidin-1-yl-methanone], the IC50 is reported as ≤ 1000 nM.
In the case of O=C(c1csc(C2CCNCC2)c1)N1CCCCC1c1ccccc1 (stereo not drawn) [CC-017, (2-Phenyl-piperidin-1-yl)-(5-piperidin-4-yl-thiophen-3-yl)methanone], the IC50 is reported as ≤ 1000 nM.
N#CCc1cc(C(=O)N2CCC[C@@H]3CCCC[C@@H]32)cs1 (relative stereo) [AA-022, cis-[4-(Octahydro-quinoline-1-carbonyl)-thiophen-2-yl]-acetonitrile] was tested, and the IC50 was ≤ 1000 nM.
CC(=O)N1CC=C(c2cc(C(=O)N3CCCC4CCCCC43)cs2)CC1 (stereo not drawn) [CC-086] was tested, and the IC50 was ≤ 1000 nM.
With O=C(CCc1c[nH]cn1)N1CCC(c2cc(C(=O)N3CCCC4CCCCC43)cs2)CC1 (stereo not drawn) [CC-151] the IC50 was ≤ 1000 nM.
With O=C(N1CCCC1)N1CCC(c2cc(C(=O)N3CCCC4CCCCC43)cs2)CC1 (stereo not drawn) [CC-116] the IC50 was ≤ 1000 nM.
O=C(CCc1ccncc1)N1CCC(c2cc(C(=O)N3CCCC4CCCCC43)cs2)CC1 (stereo not drawn) [CC-149] was tested, and the IC50 was ≤ 1000 nM.
In the case of CCc1cc(C(=O)N2CCCC3CCCCC32)cs1 (stereo not drawn) [AA-009], the IC50 is reported as ≤ 1000 nM.

Same assay, conditions: HEK293, more than 1000 nM (1.0 μM) and less than or equal to 30 μM
Molecule O=C(c1csc(C2CCNCC2)c1)N1CCC[C@@H]2CCCC[C@H]21 (relative stereo) [CC-034, trans-(Octahydro-quinolin-1-yl)-(5-piperidin-4-yl-thiophen-3-yl)-methanone] has an IC50 of 1000 to 30000 nM.
O=C(CO)N1CCC(c2cc(C(=O)N3CCCCC3c3ccccc3)cs2)CC1 (stereo not drawn) [CC-102] showed an IC50 of 1000 to 30000 nM.
In the case of CCc1cc(C(=O)N2CCCCC2)c(C#N)s1 [AA-003, 5-Ethyl-3-(piperidine-1-carbonyl)-thiophene-2-carbonitrile], the IC50 is reported as 1000 to 30000 nM.
In the case of O=C(OCc1ccccc1)N1CCC(c2cc(C(=O)N3CCCCCC3)c(Cl)s2)CC1 [CC-009, 4-[4-(Azepane-1-carbonyl)-5-chloro-thiophen-2-yl]-piperidine-1-carboxylic acid benzyl ester], the IC50 is reported as 1000 to 30000 nM.
Molecule CNCC(=O)N1CCC(c2cc(C(=O)N3CCCC4CCCCC43)cs2)CC1 (stereo not drawn) [CC-056] has an IC50 of 1000 to 30000 nM.
CC1(C)CCN(C(=O)c2csc(C3CCOCC3)c2)CC1 [CC-011] gave an IC50 of 1000 to 30000 nM.
Molecule CC(C)(C)C(=O)N1CCC(c2cc(C(=O)N3CCCC4CCCCC43)cs2)CC1 (stereo not drawn) [CC-100] has an IC50 of 1000 to 30000 nM.
Work on O=C(c1ccno1)N1CCC(c2cc(C(=O)N3CCCC4CCCCC43)cs2)CC1 (stereo not drawn) [CC-052] yielded an IC50 of 1000 to 30000 nM.
Work on CC1(C)CC2CC(C)(CN2C(=O)c2csc(C3CCN(C(=O)OCc4ccccc4)CC3)c2)C1 (stereo not drawn) [CC-071] yielded an IC50 of 1000 to 30000 nM.
For CC(C)OC(=O)N1CCC(c2cc(C(=O)N3CCCC4CCCCC43)cs2)CC1 (stereo not drawn) [CC-067], the IC50 was 1000 to 30000 nM.
With CCc1cc(C(=O)N2CCC(c3ccccc3)C2)c(Cl)s1 (stereo not drawn) [AA-008] the IC50 was 1000 to 30000 nM.
C[C@@H]1CN(C(=O)c2csc(C3CCNCC3)c2)C[C@H](C)O1 [CC-019] showed an IC50 of 1000 to 30000 nM.
O=C(c1csc(C2CCNCC2)c1)N1CCCCC1c1ccc(F)cc1 (stereo not drawn) [CC-112] gave an IC50 of 1000 to 30000 nM.
O=C(CCn1ccnc1)N1CCC(c2cc(C(=O)N3CCCC4CCCCC43)cs2)CC1 (stereo not drawn) [CC-117] was tested, and the IC50 was 1000 to 30000 nM.
For CN1CCC(c2cc(C(=O)N3CCC[C@@H]4CCCC[C@@H]43)cs2)CC1 (relative stereo) [CC-038, cis-[5-(1-Methyl-piperidin-4-yl)-thiophen-3-yl]-(octahydro-quinolin-1-yl)-methanone], the IC50 was 1000 to 30000 nM.
O=C(OCc1ccccc1)N1CCC(c2cc(C(=O)N3CCCC4CCCCC43)cs2)CC1 (stereo not drawn) [CC-032] gave an IC50 of 1000 to 30000 nM.
O=C(c1csc(C2CCN(c3ccccn3)CC2)c1)N1CCCC2CCCCC21 (stereo not drawn) [CC-120] gave an IC50 of 1000 to 30000 nM.
Work on O=C(c1csc(C2CCNCC2)c1)N1CCCCCC1c1ccccc1 (stereo not drawn) [CC-107] yielded an IC50 of 1000 to 30000 nM.
O=C(c1csc(C2CCCCC2)c1)N1CCCC2CCCCC21 (stereo not drawn) [DD-003] gave an IC50 of 1000 to 30000 nM.
Work on CC1(C)CCCN(C(=O)c2csc(N3CCOCC3)c2)C1 [CC-010, (3,3-Dimethyl-piperidin-1-yl)-(5-morpholin-4-yl-thiophen-3-yl)-methanone] yielded an IC50 of 1000 to 30000 nM.
Work on COC(=O)N1CCC(c2cc(C(=O)N3CCCC(C)(C)CC3)cs2)CC1 [CC-094] yielded an IC50 of 1000 to 30000 nM.
Molecule O=C(c1csc(C2CCNCC2)c1)N1CCCCC1c1ccccn1 (stereo not drawn) [CC-012] has an IC50 of 1000 to 30000 nM.
CC(C)S(=O)(=O)N1CCC(c2cc(C(=O)N3CCCC4CCCCC43)cs2)CC1 (stereo not drawn) [CC-104] was tested, and the IC50 was 1000 to 30000 nM.
For CC1(C)CCCN(C(=O)c2csc(C3CCCNC3)c2)C1 (stereo not drawn) [CC-014], the IC50 was 1000 to 30000 nM.
With CCc1cc(C(=O)N2CCC3CCCCC3C2)cs1 (stereo not drawn) [AA-010] the IC50 was 1000 to 30000 nM.
With O=C1CNCCN1c1cc(C(=O)N2CCC[C@@H]3CCCC[C@@H]32)cs1 (relative stereo) [CC-048, cis-1-[4-(Octahydro-quinoline-1-carbonyl)-thiophen-2-yl]-piperazin-2-one] the IC50 was 1000 to 30000 nM.
O=C(c1csc(C2CCNCC2)c1)N1CCCC1c1ccccc1 (stereo not drawn) [CC-020] was tested, and the IC50 was 1000 to 30000 nM.
CC1(C)CCCCN(C(=O)c2csc(C3CCNCC3)c2)C1 [CC-024] was tested, and the IC50 was 1000 to 30000 nM.
O=C(c1csc(C2CCNCC2)c1)N1CCC(F)(F)C2CCCCC21 (stereo not drawn) [CC-131] showed an IC50 of 1000 to 30000 nM.
With O=C(c1csc(C2CCN(S(=O)(=O)C3CC3)CC2)c1)N1CCCC2CCCCC21 (stereo not drawn) [CC-093] the IC50 was 1000 to 30000 nM.
With O=C(c1csc(C2CCN(c3ncccn3)CC2)c1)N1CCC[C@@H]2CCCC[C@@H]21 (relative stereo) [CC-121, cis-(Octahydro-quinolin-1-yl)-[5-(1-pyrimidin-2-yl-piperidin-4-yl)-thiophen-3-yl]-methanone] the IC50 was 1000 to 30000 nM.
